Experiments:
Assay in all cases: relative viability (nuclei count vs DMSO), 5 days (fraction); higher = more cells survive
TPCA-1 + Phenformin = compound: C1=CC(=CC=C1C2=CC(=C(S2)NC(=O)N)C(=O)N)F [TPCA-1] + N=C(N)NC(=N)NCCc1ccccc1 [Phenformin] (partner 250 µM)
Method in brief: (§1)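 Five library-drug doses in √10 steps were combined with a fixed anchor-drug dose, or a single drug was given alone, by pin tool to lung cancer cell lines in 1536-well plates the day after seeding. Nuclei were stained and counted after 5 days. Relative viability is the nuclei count in treated wells over that in vehicle wells, taken as the median of duplicate plates.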

TPCA-1 + Pemetrexed = compound: C1=CC(=CC=C1C2=CC(=C(S2)NC(=O)N)C(=O)N)F [TPCA-1] + Nc1nc2[nH]cc(CCc3ccc(C(=O)N[C@@H](CCC(=O)O)C(=O)O)cc3)c2c(=O)[nH]1 [Pemetrexed] (partner 0.2 µM)
Method in brief: as §1

[1] = compound: C1/C(=C\C2=CC=CS2)/C(=O)/C(=C/C3=CC=CS3)/C1 + O=C(c1cc(Cc2n[nH]c(=O)c3ccccc23)ccc1F)N1CCN(C(=O)C2CC2)CC1 [Olaparib] (partner 8 µM)
Method in brief: as §1

TPCA-1 + Olaparib = compound: C1=CC(=CC=C1C2=CC(=C(S2)NC(=O)N)C(=O)N)F [TPCA-1] + O=C(c1cc(Cc2n[nH]c(=O)c3ccccc23)ccc1F)N1CCN(C(=O)C2CC2)CC1 [Olaparib] (partner 8 µM)
Method in brief: as §1

| Cell Line | relative viability (TPCA-1 + Phenformin; first compound 0.04 µM) | relative viability (TPCA-1 + Phenformin; first compound 0.1265 µM) | relative viability (TPCA-1 + Phenformin; first compound 0.4 µM) | relative viability (TPCA-1 + Phenformin; first compound 1.265 µM) | relative viability (TPCA-1 + Phenformin; first compound 4 µM) | relative viability (TPCA-1 + Pemetrexed; first compound 0.04 µM) | relative viability (TPCA-1 + Pemetrexed; first compound 0.1265 µM) | relative viability (TPCA-1 + Pemetrexed; first compound 0.4 µM) | relative viability (TPCA-1 + Pemetrexed; first compound 1.265 µM) | relative viability (TPCA-1 + Pemetrexed; first compound 4 µM) | relative viability ([1]; first compound 0.2 µM) | relative viability ([1]; first compound 0.6325 µM) | relative viability ([1]; first compound 2 µM) | relative viability ([1]; first compound 6.325 µM) | relative viability ([1]; first compound 20 µM) | relative viability (TPCA-1 + Olaparib; first compound 0.04 µM) | relative viability (TPCA-1 + Olaparib; first compound 0.1265 µM) | relative viability (TPCA-1 + Olaparib; first compound 0.4 µM) | relative viability (TPCA-1 + Olaparib; first compound 1.265 µM) | relative viability (TPCA-1 + Olaparib; first compound 4 µM) |
| --- | --- | --- | --- | --- | --- | --- | --- | --- | --- | --- | --- | --- | --- | --- | --- | --- | --- | --- | --- | --- |
| NCI-H1623 | 0.592 | 0.522 | 0.62 | 0.574 | 0.4 | – | – | – | – | – | – | – | – | – | – | – | – | – | – | – |
| SK-LU-1 | 0.719 | 0.461 | 0.662 | 0.44 | 0.238 | 1.03 | 0.94 | 0.986 | 0.831 | 0.73 | 0.427 | 0.34 | 0.541 | 0.443 | 0.514 | 0.544 | 0.37 | 0.428 | 0.418 | 0.315 |
| NCI-H2085 | 0.837 | 0.616 | 0.693 | 0.555 | 0.389 | – | 0.864 | 0.918 | 0.872 | 0.634 | 0.764 | 0.774 | 0.808 | 0.709 | 0.765 | – | 0.74 | 0.738 | 0.839 | 0.683 |
| NCI-H460 | 0.607 | 0.523 | 0.53 | 0.502 | 0.336 | 0.0613 | 0.0689 | – | 0.0518 | 0.0585 | 0.548 | 0.455 | 0.503 | 0.398 | 0.449 | 0.475 | 0.465 | 0.463 | 0.392 | 0.278 |
| Calu-6 | – | – | – | – | – | – | – | – | – | – | 0.548 | 0.595 | 0.55 | 0.586 | 0.524 | 0.671 | 0.57 | 0.553 | 0.539 | 0.511 |
| RERF-LC-KJ | 0.425 | 0.393 | 0.424 | 0.408 | 0.37 | 0.473 | 0.474 | 0.469 | 0.524 | 0.488 | 0.948 | 0.956 | 0.869 | 0.724 | 0.637 | 0.952 | 0.857 | 0.884 | 0.911 | 0.78 |
| LCLC-103H | 0.335 | 0.321 | 0.345 | 0.332 | 0.357 | 0.522 | 0.426 | 0.464 | 0.398 | 0.432 | 0.738 | 0.795 | 0.739 | 0.68 | 0.722 | 0.747 | 0.788 | 0.782 | 0.868 | 0.779 |
| HCC-15 | 0.578 | 0.479 | 0.509 | 0.435 | 0.275 | 0.222 | 0.227 | 0.224 | 0.238 | 0.22 | 0.784 | 0.771 | 0.707 | 0.656 | 0.66 | 0.798 | 0.686 | 0.773 | 0.67 | 0.594 |
| H3255 | 0.39 | 0.39 | 0.353 | 0.356 | 0.316 | 0.577 | 0.487 | 0.58 | 0.484 | 0.493 | 0.635 | 0.59 | 0.635 | 0.509 | 0.535 | 0.577 | 0.542 | 0.536 | 0.527 | 0.507 |
| NCI-H1792 | 0.326 | 0.246 | 0.322 | 0.217 | 0.158 | 1.24 | 0.721 | 0.764 | 0.672 | 0.222 | 0.499 | 0.492 | 0.627 | 0.279 | 0.474 | 0.432 | 0.281 | 0.382 | 0.352 | 0.202 |
| NCI-H1563 | 0.712 | 0.653 | 0.712 | 0.603 | 0.667 | 0.799 | 0.508 | 0.788 | 0.642 | 0.599 | – | – | – | – | – | – | – | – | – | – |
| NCI-H596 | 0.857 | 0.678 | 0.764 | 0.746 | 0.658 | 0.53 | 0.516 | 0.532 | 0.509 | 0.412 | 0.674 | 0.727 | 0.767 | 0.596 | 0.665 | 0.722 | 0.674 | 0.671 | 0.828 | 0.479 |
| NCI-H2087 | 0.475 | 0.417 | 0.417 | 0.351 | 0.154 | 0.615 | 0.472 | 0.646 | 0.651 | 0.539 | 0.708 | 0.528 | 0.699 | 0.561 | 0.594 | 0.711 | 0.588 | 0.541 | 0.546 | 0.364 |
| NCI-H661 | 0.281 | 0.272 | 0.269 | 0.306 | 0.253 | 0.931 | 0.906 | 0.931 | 0.851 | 0.97 | 0.757 | 0.76 | 0.712 | 0.614 | 0.81 | 0.751 | 0.748 | 0.77 | 0.721 | 0.758 |
| NCI-H1299 | – | – | – | – | – | – | – | – | – | – | 1.01 | 0.969 | 0.953 | 0.817 | 0.962 | 0.947 | 0.963 | 0.941 | 0.932 | 0.939 |
| NCI-H1648 | – | – | – | – | – | 0.824 | 0.702 | 0.769 | 0.76 | 0.809 | 0.855 | 0.81 | 1.03 | 0.792 | 0.814 | 0.799 | 0.81 | 0.626 | 1.1 | 0.933 |
| EBC-1 | – | – | – | – | – | – | – | – | – | – | 0.687 | 0.754 | 0.652 | 0.593 | 0.69 | 0.759 | 0.606 | 0.784 | 0.727 | 0.715 |
| IA-LM | – | – | – | – | – | – | – | – | – | – | 0.874 | 0.871 | 0.755 | 0.618 | 0.879 | 0.818 | 0.834 | 0.846 | 0.765 | 0.72 |
| ABC-1 | 0.292 | 0.22 | 0.197 | 0.211 | 0.203 | – | – | – | – | – | 1.02 | 0.984 | 1.11 | 0.842 | 0.779 | 1.43 | 0.676 | 0.97 | 0.789 | 0.788 |
| NCI-H1703 | – | – | – | – | – | – | – | – | – | – | 0.547 | 0.54 | 0.536 | 0.423 | 0.574 | 0.443 | 0.39 | 0.433 | 0.398 | 0.424 |
